Values of other authors, collected in patent US8263660B2, “Stable hyperbaric composition comprising prilocaine HCl, use of said new composition for intrathecal anaethesia, and method for manufacturing said composition” (Sintetica S.A., priority 2006, dated 2012).

Details: intrathecal application, literature reference (4)

Compound: CCN(CC)CCOC(=O)c1ccc(N)cc1 [procaine]
- inadequacy rate: ≤ 17%
